This assay has as its system AMPA receptors. Put plainly: AMPA ES Cell FLIPR Screen (AMPA Potentiator Assay). In kind it is cell-based, murine. The settings on record: ES cell-derived neurons, FLIPR (Fluo-4), 32 μM AMPA challenge; values marked * are the geometric mean of 2-5 EC50 determinations. An excerpt: Growth and Maintenance of ES Cells
Murine ES cell line E14, with a targeted mutation in the Sox1 gene and a neuroectodermal marker that offers G418 resistance when the Sox1 gene is expressed (Stem Cell Sciences, West Mains Road, Edinburgh, Scotland EH9 3JQ) may be used in all experiments. ES cells may be maintained undifferentiated as previously described (Methods For The Isolation And Maintenance Of Murine Embryonic Stem Cells; Roach-M-L, McNeish-J-D., Methods in Molecular Biology, 185, 1-16 (2002)). Briefly, ES cells may be grown in stem cell culture media comprising a base medium of Knockout™ D-MEM (Invitrogen 5791 Van Allen Way, Carlsbad, Calif. USA 92008), supplemented with 15% ES qualified Fetal Bovine Serum (FBS) (Invitrogen), 0.2 mM L-Glutamine (Invitrogen), 0.1 mM MEM non-essential amino acids (Invitrogen), 30 μg/ml Gentamicin […] (Invitrogen), 1000 U/ml ESGRO™ (CHEMICON International, Inc., 28820 Single Oak Drive, Temecula, Calif. 92590) and 0.1 mM 2-mercaptoethanol (Sigma, 3050 Spruce St., St. Louis, Mo. 63103). ES cells may then be plated on gelatin-coated dishes (BD Biosciences, 2350 Qume Drive, San Jose, Calif. 95131), wherein the media is changed daily and the cells dissociated with 0.05% Trypsin EDTA (Invitrogen) every other day.
Neural In Vitro Differentiation of ES Cells
Embryoid Body Formation: Prior to embryoid body (EB) formation the ES cells may be weaned from FBS onto Knockout Serum Replacement™ (KSR) (Invitrogen). To form EBs, ES cells may be dissociated into a single cell suspension, then 3×10^6 cells plated in bacteriology dishes (Nunc 4014) and grown as a suspension culture in NeuroEB-I medium that consisted of Knockout™ D-MEM (Invitrogen), supplemented with 10% KSR (Invitrogen), 0.2 mM L-Glutamine (Invitrogen), 0.1 mM MEM non-essential amino acids (Invitrogen), 30 μg/ml Gentamicin (Invitrogen), 1000 U/ml ESGRO™ (CHEMICON International, Inc.), 0.1 mM 2-mercaptoethanol (Sigma) and 150 ng/ml Transferrin (Invitrogen). The plates may then be put on a Stovall Belly Button™ shaker in an atmospheric oxygen incubator. The media may be changed on day 2 of EB formation with NeuroEB-I and on day 4 with NeuroEB-II (NeuroEB-I plus 1 μg/ml mNoggin (R&D Systems, 614 McKinley Place N.E. Minneapolis, Minn. 55413)
Neuronal Precursor Selection and Expansion: On day 5 of EB formation, EBs may be dissociated with 0.05% Trypsin EDTA, and 4×10^6 cells/100 mm dish may then be plated on Laminin coated tissue culture dishes in NeuroEB-II-G418 medium that consisted of a base medium of a 1:1 mixture of D-MEM/F12 supplemented with N2 supplements and NeuroBasal Medium supplemented with B27(I ASSUME THIS IS THE VITAMIN) supplement and 0.1 mM L-Glutamine (all from Invitrogen). The base medium may then be supplemented with 10 ng/ml bFGF (Invitrogen), 1 μg/ml mNoggin, 500 ng/ml SHH-N (IS THIS SONIC HEDGEHOG FROM ProSpecBio Rehovot Science Park, P.O. BOX 398, Rehovot 76103, Israel), 100 ng/ml FGF-8b (R&D Systems), 1 μg/ml Laminin and 200 μg/ml G418 (Invitrogen) for selection of neuronal precursors expressing Sox-1. The plates may then be put in an incubator containing 2% oxygen and maintained in these conditions. During the 6-day selection period, the NeuroEB-II ([…]) media should be changed daily. On day 6, the surviving neuronal precursor foci may then be dissociated with 0.05% Trypsin EDTA and the cells plated at a density of 1.5×10^6 cells/100 mm Laminin coated dish in Neuroll ([…])-G418 medium. The cells may then be dissociated every other day for expansion, and prepared for cryopreservation at passage 3 or 4. The cryopreservation medium typically contains 50% KSR, 10% dimethyl sulfoxide (DMSO) (Sigma) and 40% Neurol([…])-G418 medium. Neuronal precursors may be cryopreserved at a concentration of 4×10^6 cells/ml and 1 ml/cryovial in a controlled rate freezer overnight then transferred to an ultra-low freezer or liquid nitrogen for long-term storage. […]

Structures are written as SMILES.

In the case of `CC(C)S(=O)(=O)N[C@H]1CCCC[C@H]1Oc1ccc(-c2ccccc2OC(F)(F)F)nc1` [Example 41, N-[(1S,2R)-2-({6-[2-(trifluoromethoxy)phenyl]pyridin-3-yl}oxy)cyclohexyl] propane-2-sulfonamide], the EC50 amounted to 331 nM.
As for `CC(C)S(=O)(=O)N[C@H]1CCCC[C@H]1Oc1ccc(-c2ccc(C#N)s2)nc1` [Example 42, N-[(1S,2R)-2-{[6-(5-cyano-2-thienylpyridin)-3-yl]oxy}cyclohexyl] propane-2-sulfonamide], the figure is 2780 nM.
As for `CC(C)S(=O)(=O)N[C@H]1CCCC[C@H]1Oc1ccc(N2CCCCC2)cc1` [Example 54, N-[(1S,2R)-2-(4-piperidin-1-ylphenoxy)cyclohexyl]pro-pane-2-sulfonamide], the figure is 503 nM.

A word on the EC50: it is the concentration giving half of the maximal effect.
